Data taken from patent US8258257B2 (The Regents of the University of California, priority 2008, dated 2012).
“Also recorded” adds a separate entry of the source. Where no end group is shown, it is not given here.

Legend:
GST-Cldn4.Ecl2 (R4) = GST-Cldn4.Ecl2 (R4) (Mus musculus, UniProt O35054); assay type: binding; details: for Kd: read-out: calculated equilibrium affinity (KD)
Cldn-4 Mutant R4 [1] = target: T1, Cldn-4 Mutant R4 (Mus musculus, UniProt O35054); experiment: Kd (1/s)
T1 construct: made in house; host or cells: E. coli BL21 (pLysS)
Experimental: (§1) Table printed on a drawing sheet, FIGURE 3
(§2) Title: Binding Kinetics of Various Peptides to Cldn-4 Mutant R4
Head of the field: Kd (1/s)
(§3) The processed specific binding sensorgrams are presented for each ligand. The 50 nM analyte concentration was repeated twice to confirm reproducibility. The binding kinetics was analyzed by “BIAevalution 3.1” software with 1:1 (langmuir) binding mode, and the binding constants were summarized in the table.
(§4) First copying reader's note: Panel B of FIGURE 3; panel A is a sensorgram plot and is left out.
(§5) Where the first naming reader finds the target: table_title: Binding Kinetics of Various Peptides to Cldn-4 Mutant R4

Cldn-4 Mutant R4 [2] = target: T1, Cldn-4 Mutant R4; experiment: KD (nM)
Experimental: as §1, §2
Head of the field: KD (nM)
as §3, §4, §5

[3] = target: Claudin-4 Ecl2 domain (synthetic biotinylated peptide) (Mus musculus, UniProt O35054); assay type: binding
GST protein = GST protein (Schistosoma japonicum, UniProt P08515); assay type: binding
Cldn-4 Mutant R4 [4] = target: T1, Cldn-4 Mutant R4

T1 sequence (O35054 117-181, change not shown): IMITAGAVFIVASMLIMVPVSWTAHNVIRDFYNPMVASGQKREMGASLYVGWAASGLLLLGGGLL
GST protein, sequence (P08515 whole entry, looked up): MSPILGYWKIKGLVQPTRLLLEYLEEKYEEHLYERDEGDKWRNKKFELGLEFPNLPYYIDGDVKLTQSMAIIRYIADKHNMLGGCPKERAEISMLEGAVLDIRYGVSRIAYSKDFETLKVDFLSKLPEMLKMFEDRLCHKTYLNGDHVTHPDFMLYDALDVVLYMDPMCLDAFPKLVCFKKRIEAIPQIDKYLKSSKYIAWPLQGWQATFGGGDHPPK

Q: Which off-rate (GST-Cldn4.Ecl2 (R4)) does the source give for APWTEHSYYLSL [CC4P-13R] here?
A: slowest off-rate

Q: How did the “Kd” value (Cldn-4 Mutant R4 [1]) turn out when “APWTEHSYYLSL [CC4P-13] [listing 1 of 2 here]” was run?
A: 0.000742 s⁻¹

Q: What does the source list for “APWTEHSYYLSL [CC4P-13] [listing 2 of 2 here]”?
A: KD (stated in words) (GST-Cldn4.Ecl2 (R4)): nanomolar level; specific binding to Cldn4 Ecl2 (GST-Cldn4.R4) (GST-Cldn4.Ecl2 (R4)): clear specific binding; also recorded: orientation of biotinylation did not affect the binding; also recorded: significant affinity

Q: Which “specific binding to Cldn4 Ecl2 (GST-Cldn4.R4)” value (“specific binding to Cldn4 Ecl2” for short) (GST-Cldn4.Ecl2 (R4)) does the source give for ASNSSYSGNYSIL [Cpe30 MT3] here?
A: did not bind

Q: Which results are given for “NSSYSGNYPYSILFQKF [Cpe17, NSSYSGNYPYSILFQKF]”?
A: off-rate (GST-Cldn4.Ecl2 (R4)): slightly slower off-rate; on-rate (GST-Cldn4.Ecl2 (R4)): similar; specific binding to Cldn4 Ecl2 (GST-Cldn4.R4) (GST-Cldn4.Ecl2 (R4)): strong specific binding; Kd (GST-Cldn4.Ecl2 (R4)): 1.57 nM; Kd (Cldn-4 Mutant R4 [2]): 2.12 nM

Q: How did the on-rate (GST-Cldn4.Ecl2 (R4)) turn out when “SLDAGQYVLVMKANSSYSGNYPYSILFQKF [Cpe30] [listing 1 of 2 here]” was run?
A: similar

Q: And the “specific binding to Cldn4 Ecl2” value (GST-Cldn4.Ecl2 (R4))?
A: optimal binding activity; also recorded: strong specific binding

Q: And the Kd (GST-Cldn4.Ecl2 (R4))?
A: 2.56 nM

Q: And the “binding to lariat Ecl2 (cyclic, disulfide bond)” value [3]?
A: failed to bind

Q: What about the “binding to linear B-Ecl2 peptide” value [3] of the same sequence?
A: No specific binding

Q: What about the “binding to tethered Ecl2 (B-Ecl2-B, biotin at both termini)” value [3] of the same sequence?
A: failed to bind

Q: And the “binding to GST protein only” value (GST protein)?
A: did not bind

Q: For “SLDAGQYVLVMKANSSYSGNYPYSILFQKF [Cpe30] [listing 2 of 2 here]”, which “Ka” value (Cldn-4 Mutant R4 [4]) is on record?
A: 130000 M⁻¹ s⁻¹

Q: “SPWSEPAYTLAP [CC4P-5] [listing 1 of 2 here]” was tested. Which “Ka” value (Cldn-4 Mutant R4 [4]) did it give?
A: 315000 M⁻¹ s⁻¹

Q: What about the “Kd” value (Cldn-4 Mutant R4 [1]) of the same sequence?
A: 0.00141 s⁻¹

Q: Which results are given for “SPWSEPAYTLAP [CC4P-5] [listing 2 of 2 here]”?
A: KD (stated in words) (GST-Cldn4.Ecl2 (R4)): nanomolar level; specific binding to Cldn4 Ecl2 (GST-Cldn4.R4) (GST-Cldn4.Ecl2 (R4)): clear specific binding; also recorded: significant affinity

Q: Which “specific binding to Cldn4 Ecl2” value (GST-Cldn4.Ecl2 (R4)) does the source give for SSYSGNYPYSIL [Cpe30 MT1] here?
A: no specific binding; also recorded: did not bind

Q: With VTHKTCPPACWP [CC4P-2] as the sequence, how does the “specific binding to Cldn4 Ecl2” value (GST-Cldn4.Ecl2 (R4)) read?
A: no specific binding
